Conditions: as compared to prazoles such as panto prazole sodium and omeprazole sodium

## COCCCOc1ccnc(C[S+]([O-])c2nc3ccccc3[n-]2)c1C.[Na+] (stereo not shown) [Form X, 2-[[[4-(3-methoxypropoxy)-3-methyl-2-pyridinyl]-methyl]sulfinyl]-1H-benzimidazole sodium]
  chemical stability such as thermo stability and light stability: better chemical stability

Reference: patent US20050234103A1, “Crystalline forms of rabeprazole sodium” (priority 2002, published 2005)
